This is an account of results in patent US6953810B2, “Nicotinamide biaryl derivatives useful as inhibitors of PDE4 isozymes” (Pfizer Inc, priority 2001, dated 2005).

“Also recorded” adds a separate entry of the source.

Data set [1] relates to guinea-pig trachea. The conditions noted are these: cited from earlier work.
For data set [2] the following is noted: in vivo; cited from earlier work.
The test system of data set [3] is lipopolysaccharide-induced mesenteric blood flow fall. The settings on record: dog, in vivo; cited from earlier work.
The test system of data set [4] is human peripheral blood mononuclear cells (HPBM). The conditions noted are these: normal patients and subjects with atopic dermatitis; cited from earlier work.
Data set [5] concerns bone marrow culture. The conditions noted are these: cited from earlier work.
Data set [6] concerns psoriatic epidermal slices. The settings on record: psoriatic and keratomed psoriatic epidermal slices; cited from earlier work.
In data set [7] the test system is psoriatic lesions. The settings on record: two double-blind studies; cited from earlier work.
The test system of data set [8] is rhinorrhea. The conditions noted are these: in vivo; cited from earlier work.
Data set [9] relates to SCW-induced arthritis. The settings on record: in vivo; cited from earlier work.
Data set [10] deals with rheumatoid arthritis patients. More on the design: dose or concentration left out as unconfirmed. The settings on record: 35 patients; cited from earlier work.
Data set [11] relates to ex vivo TNF release and lymphocyte proliferation. The settings on record: oral dose of 300 mg; cited from earlier work.
For data set [12], the system named is collagen II induced arthritis. The settings on record: 3 mg/kg twice daily when arthritis was apparent; cited from earlier work.
For data set [13], the system named is experimental allergic encephalomyelitis. The settings on record: marmoset; cited from earlier work.
The subject of data set [14] is chronic relapsing experimental allergic encephalomyelitis. The settings on record: SJL mice; cited from earlier work.
Data set [15] has as its system isolated pulmonary artery rings. The conditions noted are these: cited from earlier work.
Data set [16] concerns tumor cells. The conditions noted are these: at micromolar concentrations; cited from earlier work.
Data set [17] relates to antigen-induced lung eosinophilia. The settings on record: rat; cited from earlier work.
The test system of data set [18] is lung, BAL, airway and pleural eosinophilia. The conditions noted are these: guinea-pig; cited from earlier work.
The test system of data set [19] is airway hyper-responsiveness (AHR). The conditions noted are these: guinea-pig; PAF-, ozone- or ACh-induced; cited from earlier work.
Data set [20] concerns antigen-induced bronchoconstriction. The conditions noted are these: guinea-pig; cited from earlier work.
The test system of data set [21] is late reactions to inhaled allergen. The settings on record: oral 15 and 30 mg, 9.5 days; cited from earlier work.
The test system of data set [22] is catalytic site (Sc) of PDE4. The settings on record: cited from earlier work.
The subject of data set [23] is patients. The conditions noted are these: oral 5, 10, and 15 mg b.i.d., week 2; cited from earlier work.

The melting point is the temperature, or range, at which the solid turns liquid.

As for `O=S1(=O)CCN(c2nc(NC3CC3)nc(C3CC3)n2)C1` [Formula (0.0.56)], the “relaxation in a guinea-pig trachea model” value in [1] is on record as “potent relaxant agents”. `COc1ccc(C2CNC(=O)NC2)cc1O[C@H]1C[C@@H]2CC[C@H]1C2` [CP-80,633, atizoram]: the “emesis, nausea, vomiting” value in data set [2] is recorded as “elicit emesis”. Regarding `CCCCn1c(=O)c2c(ncn2CC(C)=O)n(CCCC)c1=O` [denbufylline], the “potency relative to pentoxifylline in inhibiting lipopolysaccharide-induced mesenteric blood flow fall” value in data set [3] is listed as 100 fold. Besides, the “inhibition of proliferation of HPBM” value in [4] is reported as “concentration-related inhibition”. For the same compound, in data set [5], the “mineralized nodules in bone marrow culture” value was “increase in the number of mineralized nodules”.

Take `COc1ccc(CC2CNC(=O)N2)cc1OC1CCCC1` (stereo not drawn) [Ro 20-1724]: the “elevation of cAMP concentrations over controls” value in [6] is “very marked elevation”. For the same compound, the “psoriatic lesions versus vehicle” value in [7] is reported as “improve psoriatic lesions”. With `CC1CC1c1nc(NC2CC2)nc(N2CCOCC2)n1` (stereo not drawn) [Formula (0.0.57)], the “relaxation in a guinea-pig trachea model” value in data set [1] was “potent relaxant agents”. On to `CCCC1C(=O)C2=C(C(CC)=NC2C)c2nc(OC)ccc21` [Example D-22888], for which, in data set [8], the “rhinorrhea in the antigen-challenged pig” value was “inhibit rhinorrhea”. As for `Nc1nc2c([nH]1)c(=O)n(CC1CC1)c(=O)n2CC1CC1` [BRL-61,063, cipamfylline], the “emesis, nausea, vomiting” value in data set [2] is “adverse events of nausea and vomiting”. For the compound `COc1ccc(C(=O)Nc2c(Cl)cncc2Cl)cc1OC1CCCC1` [RP73401], the “disease in SCW-induced arthritis (joint destruction, synovitis, fibrosis)” value in data set [9] is reported as “significant amelioration of disease”. Moreover, the “clinical improvement with reduction in C-reactive protein and IL-6 serum levels” value in data set [10] is recorded as “positive trend towards clinical improvement”.

For the compound `CCNc1ncn(Cc2ccc(OC)c(OC3CCCC3)c2)c2nc(C(C)C)nc1-2` [Example V-11294A], the “reduction of TNF levels and lymphocyte proliferation” value in [11] was “effective”. In turn, `O=C(O)c1cccc(-c2ccc(CNC(=O)c3cccnc3Oc3ccc4c(c3)OCO4)c(F)c2)c1` [Example 3] registered a melting point of 190 to 192 °C. In turn, `N#Cc1cccc(Oc2ncccc2C(=O)NCc2ccc(-c3cccc(C(=O)O)c3)cc2F)c1` [Example 4, 4′-[[[2-[3-Cyano-phenoxy]-pyridine-3-carbonyl]-amino]-methyl]-biphenyl-3′-fluoro-biphenyl-3-carboxylic acid] yielded a melting point of 200 to 202 °C. Take `COc1ccc(C2CNC(=O)C2)cc1OC1CCCC1` (stereo not drawn) [rolipram]: the development of disease result in [12] was “progression of severity was halted”. In addition, the “inhibition of proliferation of HPBM” value in [4] is “concentration-related inhibition”. Besides, in data set [13], the “clinical signs of EAE” value is “suppress the appearance of clinical signs”. Also, in data set [14], the “clinical signs and pathological changes of chronic relapsing EAE” value was “ameliorates clinical signs and pathological changes”. In data set [15], the “effect on relaxant activities of isoproterenol and forskolin” value was “potentiates the relaxant activities of isoproterenol and forskolin”. As to `Clc1nc2c(N3CCCC3)nc(N3CCNCC3)nc2nc1NCc1ccccc1` [Formula (0.0.55)], in data set [16], the “inhibition of growth of tumor cells” value was “inhibit the growth of tumor cells”. In turn, `O=C(O)c1cccc(-c2ccc(CNC(=O)c3cccnc3Oc3ccc(F)cc3)cc2)c1` [Example 1, 4′-[[[2-[4-Fluorophenoxyl]-pyridine-3-carbonyl]-amino]-methyl]-biphenyl-3-carboxylic acid] displayed a melting point of 184 to 186 °C. On to `Cc1cc2c3c(c1)C(c1ccccc1)=N[C@@H](NC(=O)c1ccncc1)C(=O)N3CC2` [CI-1018], for which the “oral potency ED50” value in data set [17] was 5 mg/kg. As to `O=c1c2c(ncn2Cc2cccnc2)c2cccnc2n1-c1ccccc1` [KF19514], the “inhibition of antigen-induced lung, BAL or airway eosinophilia” value (shortened to “inhibition of antigen-induced lung”) in [18] is “activity”. The “inhibition of airway hyper-responsiveness (AHR)” value (“inhibition … (AHR)” below) in data set [19] is “activity”. Besides, in data set [20], the “inhibition of antigen-induced bronchoconstriction” value was “activity”.

With `Cc1[nH]c(=O)c(C#N)cc1-c1ccncc1` [milrinone], the “effect on relaxant activities of isoproterenol and forskolin” value in data set [15] is “same effect”. For `COc1ccc(C(=O)Nc2c(Cl)cncc2Cl)cc1OC1CCCC1` [RP-73,401, piclamilast], in data set [18], the “inhibition of IL-5 induced pleural eosinophila” value is given as “active” and the “inhibition of antigen-induced lung” value was “active”. Besides, the “inhibition … (AHR)” value in [19] is recorded as “active”. In addition, the “emesis, nausea, vomiting” value in data set [2] is listed as “elicit emesis”. Turning to `O=c1c2[nH]cnc2c2cccnc2n1-c1ccccc1` [KF17625], the “inhibition of antigen-induced lung” value in data set [18] is given as “activity”. Also, the “inhibition … (AHR)” value in data set [19] is on record as “activity”. In addition, in data set [20], the “inhibition of antigen-induced bronchoconstriction” value is on record as “activity”. Turning to `COc1ccc([C@H](Cc2ccncc2)c2ccccc2)cc1OC1CCCC1` [CDP840], in data set [21], the “late reactions / late-phase response to inhaled allergen” value is reported as “suppression; also recorded: significant inhibition”. Besides, the “emesis, nausea, vomiting” value in [2] was “without any adverse events of nausea or headache”. In data set [22], the “potency at the Sc compared with SB-207,499” value is “significantly higher potency”.

As for `COc1ccc([C@]2(C#N)CC[C@@H](C(=O)O)CC2)cc1OC1CCCC1` [SB-207,499], the “trough FEV1 versus placebo” value in data set [23] was “significant increases”. Turning to `O=c1c2cccnc2n(-c2cccc([N+](=O)[O-])c2)c(=O)n1Cc1ccncc1` [RS-23,544], the “emesis, nausea, vomiting” value in [2] is given as “elicit emesis”.
